Measurements from patent publication US20240131032A1, “AN ACTIVITY-GUIDED MAP OF ELECTROPHILE-CYSTEINE INTERACTIONS IN PRIMARY HUMAN IMMUNE CELLS” (The Scripps Research Institute, priority 2019, published 2024).

Columns and labels:
BIRC3 = biological target: T1, BIRC3 (Homo sapiens, UniProt Q13489, C28A); assay: Western blot of BIRC3 content in human T cells; format: cell-based; settings: EV-3 10 μM, 24 h; transfected primary human T cells
T1 construct: endogenous in cells; host or cells: primary human T cells

BIRC2 and BIRC3 mRNA = assay: mRNA content for BIRC2 and BIRC3 in T cells (qPCR); format: cell-based, human; settings: EV-3 10 μM, 24 h
Procedure: All treatments were done with T cells for 24 hours.
Total RNA from compound or DMSO treated T cells (1.5×10^7 cells/group) was isolated using RNeasy Mini Kit (Qiagen) according to manufacturer's protocol. RNA concentration was determined using NanoDrop and adjusted to 1 μg RNA in 15 μL RNAse free water for the reverse transcription reaction. cDNA amplification was done using iScript Reverse Transcription Supermix kit (BioRad) according to manufacturer's instructions. The following PCR settings were used for the reverse transcription reaction: 5 min at 25° C. (priming), 20 min at 46° C. (Reverse transcription), 1 min at 95° C. (RT inactivation), hold at 4° C. qPCR analysis was performed on ABI Real Time PCR System (Applied Biosystems) with the SYBR green Mastermix (Applied Biosystems). Relative gene expression was normalized to actin.

NuRD complex = assay: Western blot of NuRD complex members in T cells; format: cell-based, human; settings: BPK-25 10 μM
Procedure: FIG. 7B is a scatter plot representation of protein abundance changes caused by BPK-25 (10 μM, 24 h) in two independent replicate experiments, with decreases in NuRD complex components highlighted in red. FIG. 7C is a heatmap of top proteins with decreased abundance in BPK-25-treated T cells showing that the subset of these proteins in the NuRD complex (asterisks) were largely unaltered by other active compounds and blocked in their degradation by co-treatment with the proteasome inhibitor MG132. […] FIG. 7E is a bar graph […] showing time-dependent reductions in NuRD complex members in human T cells treated with BPK-25 (10 μM). Left, representative western blots. Right, quantification of changes in protein. […]
BPK-25 (10 μM) treated expanded T cells were washed with PBS before permeabilization by rotation at 4° C. for 10 min with cytoplasm lysis buffer (10 mM sodium phosphate pH 7.4, 25 mM KCl, 1.5 mM MgCl2, 10% glycerol, and 0.025% NP40 supplemented with 1×HALT protease inhibitor cocktail (Thermo Scientific)). […] Insoluble material was precipitated by centrifugation (12,000 g, […]) and the protein concentration of nuclear extracts was measured using standard BCA assay (Thermo Scientific) and normalized. […] Blots were imaged using fluorescence-labeled secondary antibodies (LI-COR) on the Odyssey CLx Imager.

NF-κB = NF-κB activation in stimulated T cells (phosphorylation readout); format: cell-based, human; settings: 24 h
Procedure: All treatments were for 24 h.
Freshly isolated T cells (2×10^5 cells/well) were harvested and stimulated as described before in a 96-well plate in the presence of DMSO or compounds of interest. Following the overnight treatment, the cells were pelleted in a U-bottom plate, harvested by centrifugation (600 g, 3 min, 4° C.), washed with PBS, and stained with near-IR LIVE/DEAD dye as described above. After the staining, intracellular phospho-NF-κB p65 (Ser536) levels were measured using PE conjugate of phospho-NF-κB p65 (Ser536) (93H1) rabbit antibody (Cell Signaling Technology) according to manufacturer's instructions. Briefly, the cells were washed with PBS and fixed with 4% PFA in PBS (100 μL, 15 min, rt). The cells were washed with PBS again (2×150 μL), placed on ice and permeabilized with 90% MeOH (100 μL/well, slow addition with gentle mixing by pipetting up and down). Following a 30 min incubation on ice, the plate was sealed and stored at −20° C. overnight. The following day, the cells were thawed on ice, washed with PBS (150 μL×2), and stained with PE conjugate of phospho-NF-κB p65 (Ser536) (93H1) rabbit antibody (50 μL, 1:100 dilution in incubation buffer (1% FBS in PBS)) for 1 h at rt in the dark. The cells were then washed with incubation buffer (150 μL×2) and resuspended in PBS for further flow cytometry analysis.

T1 sequence (Q13489 whole entry C28A): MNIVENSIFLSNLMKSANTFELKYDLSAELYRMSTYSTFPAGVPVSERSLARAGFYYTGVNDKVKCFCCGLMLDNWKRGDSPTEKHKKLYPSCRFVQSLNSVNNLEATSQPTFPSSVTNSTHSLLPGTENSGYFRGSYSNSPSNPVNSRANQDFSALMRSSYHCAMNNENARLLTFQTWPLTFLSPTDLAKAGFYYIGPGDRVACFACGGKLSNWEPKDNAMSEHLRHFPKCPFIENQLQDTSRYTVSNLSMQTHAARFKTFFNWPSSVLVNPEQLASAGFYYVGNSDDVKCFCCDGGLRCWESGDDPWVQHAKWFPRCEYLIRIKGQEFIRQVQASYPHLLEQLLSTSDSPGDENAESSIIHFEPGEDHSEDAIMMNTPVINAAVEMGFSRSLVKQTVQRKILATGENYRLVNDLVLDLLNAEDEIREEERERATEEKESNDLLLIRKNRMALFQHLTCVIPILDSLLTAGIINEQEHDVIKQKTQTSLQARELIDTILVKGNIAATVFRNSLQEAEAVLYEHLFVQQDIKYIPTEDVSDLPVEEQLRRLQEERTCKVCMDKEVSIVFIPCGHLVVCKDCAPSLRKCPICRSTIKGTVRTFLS

SMILES: O=C(CCl)N1CCN(S(=O)(=O)c2ccc(-c3ccncc3)cc2)CC1 [EV-3]
- FLAG-tagged BIRC3 C28A mutant content (BIRC3): but not cysteine mutants
- mRNA content for BIRC2 or BIRC3 (BIRC2 and BIRC3 mRNA): minimal changes

SMILES: C=CC(=O)N(Cc1cccc(Cl)n1)c1ccc(C(=O)Nc2ccccc2)nc1 [BPK-25]
- time of initial changes in NuRD complex proteins (NuRD complex): 6 h
- time of maximal effects on NuRD complex proteins (NuRD complex): 24 h

SMILES: C=CC(=O)N(Cc1cccc(Cl)c1Cl)c1ccc(Oc2ccccc2)c(C(F)(F)F)c1 [BPK-21]
- reductions in phosphorylation (NF-κB activation) (NF-κB): did not appear to impact
